Results from ChEMBL document CHEMBL1156245, “Structure-activity relationships for substrate-based inhibitors of human complement factor B” (J Med Chem, 2009).
Peptide text beside a SMILES is read from it.

How the values were obtained:
[1] = Inhibition of human alternative complement system-mediated membrane attack complex formation by ELISA
[2] = Inhibition of alternative complement system-mediated hemolysis of rabbit erythrocytes assessed as haemoglobin release after 30 mins by UV/vis spectrophotometry; set-up: species or system Oryctolagus cuniculus
[3] = target: T1, Complement factor B (Homo sapiens, UniProt P00751); experiment: Inhibition of human C3 convertase assessed as inhibition of C3a and C3b fragment production at pH 7.4 after 30 mins by SDS-PAGE using 7% (w/v) polyacrylamide gel
T1 sequence (P00751 whole entry, the tested form may be a part): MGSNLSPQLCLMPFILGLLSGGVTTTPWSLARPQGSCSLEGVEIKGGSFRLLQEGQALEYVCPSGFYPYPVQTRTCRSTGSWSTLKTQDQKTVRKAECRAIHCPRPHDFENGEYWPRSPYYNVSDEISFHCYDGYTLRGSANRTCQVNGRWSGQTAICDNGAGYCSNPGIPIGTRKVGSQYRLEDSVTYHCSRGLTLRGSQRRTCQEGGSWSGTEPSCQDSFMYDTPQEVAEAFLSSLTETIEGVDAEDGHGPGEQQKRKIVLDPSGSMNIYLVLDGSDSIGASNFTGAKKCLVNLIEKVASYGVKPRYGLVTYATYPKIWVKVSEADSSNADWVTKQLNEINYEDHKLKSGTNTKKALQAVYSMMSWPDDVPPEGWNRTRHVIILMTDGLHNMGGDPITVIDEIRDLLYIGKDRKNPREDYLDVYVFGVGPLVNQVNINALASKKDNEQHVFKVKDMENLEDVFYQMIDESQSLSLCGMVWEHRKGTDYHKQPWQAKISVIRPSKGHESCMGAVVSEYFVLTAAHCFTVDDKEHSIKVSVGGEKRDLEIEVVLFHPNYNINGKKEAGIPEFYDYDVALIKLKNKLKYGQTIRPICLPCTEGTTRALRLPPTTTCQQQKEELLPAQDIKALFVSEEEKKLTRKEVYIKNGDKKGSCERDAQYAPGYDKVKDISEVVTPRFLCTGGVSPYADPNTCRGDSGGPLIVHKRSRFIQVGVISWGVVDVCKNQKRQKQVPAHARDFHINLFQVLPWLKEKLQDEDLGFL

[4] = target: T1, Complement factor B; experiment: Inhibition of human complement factor B treated for 5 mins before addition of substrate Ac-SHLGLAR-pNA at pH 9.5 by chromogenic assay
[5] = Metabolic stability in human serum assessed as compound remaining at 1 mM after 3 hrs by LC-MS analysis; assay type: ADME, cell-free; conditions: read-out: Stability
[6] = target: T1, Complement factor B; experiment: Inhibition of human complement factor B at pH 9.5 by chromogenic assay
[7] = target: T1, Complement factor B; experiment: Inhibition of human C3 convertase assessed as inhibition of C3a and C3b fragment production at pH 7.4 after 30 mins by SDS-PAGE
[8] = Solubility in water; assay type: physicochemical; conditions: buffer
[9] = Inhibition of cobra C3/C5 convertase assessed as inhibition of C3a and C5a fragment formation; set-up: species or system Naja naja
[10] = target: T1, Complement factor B; experiment: Inhibition of human C3/C5 convertase assessed as inhibition of C3 cleavage

## Ac-RLLLAR-OH [listing 1 of 2 here]
[1]
  IC50: 1 µM
[2]
  IC50: 20.8 µM
[3]
  inhibition: Dose-dependent effect

## Ac-SHLGLAR-OH
[1]
  IC50: 21.1 µM
[2]
  IC50: 243 µM
[4]
  IC50: 19 µM
[5]
  remaining at 3 h, 1000 µM: 80%

## Ac-RLLLGR-OH
[4]
  IC50: 7 µM

## CC(C)C[C@H](NC(=O)[C@H](CCC1CCCCC1)NC(=O)[C@H](CC(C)C)NC(=O)[C@H](Cc1cnc[nH]1)NC(=O)[C@@H](N)CO)C(=O)N[C@@H](C)C(=O)N[C@@H](CCCN=C(N)N)C(=O)O (HELM PEPTIDE1{S.H.L.[O=C([C@H](CCC1CCCCC1)N[*:1])[*:2]].L.A.R}$$$$V2.0)
[4]
  IC50: 5 µM

## CC(=O)N[C@@H](Cc1ccc(F)cc1)C(=O)N[C@@H](Cc1cnc[nH]1)C(=O)N[C@@H](CC(C)C)C(=O)NCC(=O)N[C@@H](CC(C)C)C(=O)N[C@@H](C)C(=O)N[C@@H](CCCN=C(N)N)C(=O)O (HELM PEPTIDE1{[ac].[O=C([C@H](Cc1ccc(F)cc1)N[*:1])[*:2]].H.L.G.L.A.R}$$$$V2.0)
[4]
  IC50: 13 µM

## CC(=O)N[C@@H](CO)C(=O)N[C@@H](Cc1cnc[nH]1)C(=O)N[C@@H](CC(C)C)C(=O)NCC(=O)N[C@@H](CC(C)C)C(=O)N[C@@H](C)C(=O)N[C@@H](CCCN=C(N)N)C(=O)Nc1ccc([N+](=O)[O-])cc1 (HELM PEPTIDE1{[ac].S.H.L.G.L.A.R.[O=[N+]([O-])c1ccc(N[*:1])cc1]}$$$$V2.0)
[6]
  IC50: 19 µM

## CC(=O)N[C@@H](CCCNC(=N)N)C(=O)N[C@@H](CC(C)C)C(=O)N[C@@H](CC(C)(C)C)C(=O)N[C@@H](CC(C)C)C(=O)N[C@@H](C)C(=O)N[C@@H](CCCNC(=N)N)C(=O)O (HELM PEPTIDE1{[ac].R.L.[CC(C)(C)C[C@H](N[*:1])C(=O)[*:2]].L.A.R}$$$$V2.0)
[1]
  IC50: 0.32 µM
[2]
  IC50: 9.7 µM
[4]
  IC50: 0.25 µM
[7]
  IC50: 10 µM
[3]
  inhibition: Dose-dependent effect

## Ac-HLLLAR-OH
[4]
  IC50: 3 µM

## Ac-RLLLAR-OH [listing 2 of 2 here]
[4]
  IC50: 0.6 µM
[5]
  remaining at 3 h, 1000 µM: 80%
[7]
  IC50: 50 µM
[8]
  solubility: Soluble

## Ac-LLLAR-OH
[4]
  IC50: 3 µM

## N=C(N)Nc1ccc(C(=O)Oc2ccc3cc(C(=N)N)ccc3c2)cc1
[9]
  IC50: 4 µM

## Ac-SHLLLAR-OH
[4]
  IC50: 4 µM

## CCCC[C@H](NC(=O)[C@H](Cc1cnc[nH]1)NC(=O)[C@H](CO)NC(C)=O)C(=O)N[C@@H](CC(C)C)C(=O)N[C@@H](CC(C)C)C(=O)N[C@@H](C)C(=O)N[C@@H](CCCNC(=N)N)C(=O)O (HELM PEPTIDE1{[ac].S.H.[Nle].L.L.A.R}$$$$V2.0)
[4]
  IC50: 5 µM

## CC(=O)N[C@@H](CC(C)C)C(=O)N[C@@H](CC(C)C)C(=O)N[C@@H](C)C(=O)N[C@@H](CCCN=C(N)N)C(=O)O (Ac-LLAR-OH)
[4]
  IC50: 12 µM

## Ac-FHLGLAR-OH
[4]
  IC50: 23 µM

## CC[C@H](C)[C@H](N)C(=O)N[C@H]1CSSC[C@@H](C(=O)N[C@H](C(N)=O)[C@@H](C)O)NC(=O)[C@H](CCCN=C(N)N)NC(=O)[C@H](Cc2cnc[nH]2)NC(=O)[C@H](Cc2cnc[nH]2)NC(=O)CNC(=O)[C@H](Cc2c[nH]c3ccccc23)NC(=O)[C@H](CC(=O)O)NC(=O)[C@H](CCC(N)=O)NC(=O)[C@H](C(C)C)NC(=O)[C@H](C(C)C)NC1=O [COMPSTATIN]
[10]
  IC50: 12 µM
